Legend:
Format in all cases: cell-based
[1] = tested on: E. coli (strain 1257); test: Antimicrobial activity of samples: death time of test-microorganism E. coli
[2] = tested on: Staphylococcus aureus (strain 906); test: Antimicrobial activity of samples: death time of test-microorganism Staphylococcus aureus
[3] = tested on: Bacillus cereus (strain 96); test: Antimicrobial activity of samples: death time of test-microorganism Bacillus cereus; details: sample concentration 5.0 %
[4] = statement of the text on Table 1

Molecule	Death time of test-microorganisms (min) E. coli ([1]; sample concentration 0.1 %)	Death time of test-microorganisms (min) E. coli ([1]; sample concentration 5.0 %)	Death time of test-microorganisms (min) Staphylococcus aureus ([2]; sample concentration 0.1 %)	Death time of test-microorganisms (min) Staphylococcus aureus ([2]; sample concentration 5.0 %)	Death time of test-microorganisms (min) E. coli ([1]; sample concentration 0.2 %)	Death time of test-microorganisms (min) E. coli ([1]; sample concentration 0.5 %)	Antibacterial action in words towards gram negative bacteria (vegetative forms) [1, 4]	Death time of test-microorganisms (min) Staphylococcus aureus ([2]; sample concentration 0.2 %)	Death time of test-microorganisms (min) Staphylococcus aureus ([2]; sample concentration 0.5 %)	Antibacterial action in words towards gram positive bacteria (vegetative forms) [2, 4]	Death time of test-microorganisms (min) Bacillus cereus [3]
O=C(O)CN(CCN(CC(=O)O)CC(=O)O)CC(=O)O.[Zn] [Ethylenediaminotetraacetate zinc complex]	>30 min	>30 min	>30 min	>30 min	–	–	–	–	–	–	–
Monoglycinatecopper chloride complex	>30 min	–	>30 min	>30 min	30 min	15 min	high enough efficacy	>30 min	>30 min	high enough efficacy	>360 min

Source: US20050164913A1, “Disinfecting composition” (Veckis Industries Ltd., priority 2002, published 2005)
